Measurements reported in patent publication US8841233B2, “Herbicidal compositions comprising 4-amino-3-chloro-5-fluoro-6-(4-chloro-2-fluoro-3-methoxyphenyl) pyridine-2-carboxylic acid or a derivative thereof and 4-hydroxyphenyl-pyruvate dioxygenase (HPPD) inhibitors” (Dow Agrosciences LLC, priority 2012, dated 2014).

Legend:
CYPRO = assay: In-water applied weed control, transplanted paddy rice, greenhouse (Example II); type: in vivo, Cyperus rotundus L.
Description: (§1) Evaluation of in-Water Applied Herbicidal Mixtures for Weed Control in Transplanted Paddy Rice
(§2) Weed seeds or nutlets of the desired test plant species were planted in puddled soil (mud) prepared by mixing a shredded, non-sterilized mineral soil (50.5 percent silt, 25.5 percent clay, and 24 percent sand, with a pH of about 7.6 and an organic matter content of about 2.9 percent) and water at a 1:1 volumetric ratio. The prepared mud was dispensed in 365 mL aliquots into 16-ounce (oz.) non-perforated plastic pots with a surface area of 86.59 square centimeters (cm^2) leaving a headspace of 3 centimeters (cm) in each pot. Mud was allowed to dry overnight prior to planting or transplanting. Rice seeds were planted in Sun Gro MetroMix® 306 planting mixture, which typically has a pH of 6.0 to 6.8 and an organic matter content of about 30 percent, in plastic plug trays. Seedlings at the second or third leaf stage of growth were transplanted into 840 mL of mud contained in 32-oz. non-perforated plastic pots with a surface area of 86.59 cm^2 4 days prior to herbicide application. The paddy was created by filling the headspace of the pots with 2.5 to 3 cm of water. When required to ensure good germination and healthy plants, a fungicide treatment and/or other chemical or physical treatment was applied. The plants were grown for 4-22 days in a greenhouse with an approximate 14 h photoperiod which was maintained at about 29′C during the day and 26° C. during the night. Nutrients were added as Osmocote® (19:6:12, N:P:K+ minor nutrients) at 2 g per 16-oz. pot and 4 g per 32-oz. pot. Water was added on a regular basis to maintain the paddy flood, and supplemental lighting was provided with overhead metal halide 1000-Watt lamps as necessary. The plants were employed for testing when they reached the first through fourth true leaf stage.
(§3) Treatments consisted of the acid or esters of 4-amino-3-chloro-5-fluoro-6-(4-chloro-2-fluoro-3-methoxy-phenyl)pyridine-2-carboxylic acid (compound A) each formulated as an SC (suspension concentrate) and various herbicidal components alone and in combination. Forms of compound A were applied on an acid equivalent basis.
(§4) Other herbicidal components were applied on an active ingredient basis and included 4-hydroxyphenyl pyruvate dioxygenase (HPPD)-inhibiting herbicides mesotrione formulated as Callisto®, sulcotrione formulated as Mikado®, pyrazolynate formulated as Sunbird® 10% GR, and benzobicyclon formulated as Benzobicyclon 3.5% or technical material.
(§5) Treatment requirements for each compound or herbicidal component were calculated based upon the rates being tested, the concentration of active ingredient or acid equivalent in the formulation, an application volume of 2 mL per component per pot, and an application area of 86.59 cm^2 per pot.
(§6) For formulated compounds, a measured amount was placed in an individual 100 or 200 mL glass vial and was dissolved in a volume of 1.25% (v/v) Agri-Dex® crop oil concentrate to obtain application solutions.
(§7) For technical grade compounds, a weighed amount was placed in an individual 100 to 200 mL glass vial and was dissolved in a volume of acetone to obtain concentrated stock solutions. […] The concentrated stock solutions obtained were diluted with an equivalent volume of an aqueous mixture containing 2.5% (v/v) crop oil concentrate so that the final application solutions contained 1.25% (v/v) crop oil concentrate.
(§8) Applications were made by injecting with a pipetter appropriate amounts of the application solutions, individually and sequentially, into the aqueous layer of the paddy. Control plants were treated in the same manner with the solvent blank. Applications were made so that all treated plant material received the same concentrations of acetone and crop oil concentrate.
(§9) The treated plants and control plants were placed in a greenhouse as described above and water was added as needed to maintain a paddy flood. […]

ECHCO = assay: as above; type: in vivo, Echinochloa colona (L.) Link
Description: as §1, §2
as §3, with “basis. […]” for “basis.”
as §5
(§10) For formulated compounds, a measured amount was placed in an individual 100 or 200 mL glass vial and was dissolved in a volume of 1.25% (v/v) Agri-Dex® crop oil concentrate to obtain application solutions. […]

IPOHE = assay: Post-emergence foliar-applied weed control, greenhouse (Example I); type: in vivo, Ipomoea hederacea Jacq.; settings: 150 gai/ha
Source text: (§11) Evaluation of Post-emergence Foliar-Applied Herbicidal Mixtures for Weed Control in Direct Seeded Rice
(§12) Seeds or nutlets of the desired test plant species were planted in a soil matrix prepared by mixing a loam or sandy loam soil (e.g., 28.6 percent silt, 18.8 percent clay, and 52.6 percent sand, with a pH of about 5.8 and an organic matter content of about 1.8 percent) and calcareous grit in an 80 to 20 ratio. The soil matrix was contained in plastic pots with a volume of 1 quart and a surface area of 83.6 square centimeters (cm^2). When required to ensure good germination and healthy plants, a fungicide treatment and/or other chemical or physical treatment was applied. The plants were grown for 8-22 days in a greenhouse with an approximate 14 h photoperiod which was maintained at about 29° C. during the day and 26° C. during the night. Nutrients (Peters Excel® 15-5-15 5-Ca 2-Mg and iron chelate) were applied in the irrigation solution as needed and water was added on a regular basis. Supplemental lighting was provided with overhead metal halide 1000-Watt lamps as necessary. The plants were employed for testing when they reached the first through fourth true leaf stage.
as §3, with “(Compound A),” for “(compound A)”, “concentrate),” for “concentrate)”, “Compound” for “compound”
as §4, with “3.5%.” for “3.5% or technical material.”
(§13) Treatment requirements were calculated based upon the rates being tested, the concentration of active ingredient or acid equivalent in the formulation, and a 12 mL application volume at a rate of 187 L/ha.
(§14) For treatments comprised of formulated compounds, measured amounts of compounds were placed individually in 25 mL glass vials and diluted in a volume of 1.25% (v/v) Agri-Dex® crop oil concentrated to obtain 12× stock solutions. […] Application solutions were prepared by adding an appropriate amount of each stock solution (e.g., 1 mL) and diluted to the appropriate final concentrations with the addition of 10 mL of an aqueous mixture of 1.25% (v/v) crop oil concentrate so that the final spray solutions contained 1.25+/−0.05% (v/v) crop oil concentrate.
(§15) For treatments comprised of formulated and technical compounds, weighed amounts of the technical materials were placed individually in 25 mL glass vials and dissolved in a volume of 97:3 v/v acetone/DMSO to obtain 12× stock solutions, and measured amounts of the formulated compounds were placed individually in 25 mL glass vials and diluted in a volume of 1.5% (v/v) crop oil concentrate or water to obtain 12× stock solutions. […] Application solutions were prepared by adding an appropriate amount of each stock solution (e.g., 1 mL) and diluted to the appropriate final concentrations with the addition of an appropriate amount of an aqueous mixture of 1.5% (v/v) crop oil concentrate so that the final spray solutions contained 1.25% (v/v) crop oil concentrate. As required, additional water and/or 97:3 v/v acetone/DMSO was added to individual application solutions so that the final acetone and DMSO concentrations of the application solutions being compared were 8.1% and 0.25%, respectively.
(§16) All stock solutions and applications solutions were visually inspected for compound compatibility prior to application. Spray solutions were applied to the plant material with an overhead Mandel track sprayer equipped with a 8002E nozzles calibrated to deliver 187 L/ha over an application area of 0.503 m^2 at a spray height of 18 to 20 inches (46 to 50 cm) above average plant canopy height. […]

SCPMA = assay: In-water applied weed control, transplanted paddy rice, greenhouse (Example II); type: in vivo; settings: 37.5 gai/ha
Description: as §1, §2, §3, §4, §5, §6, §7, §8, §9

ECHCG [1] = assay: as above; type: in vivo, Echinochloa crusgalli (L.) Beauv.
Description: as §1, §2, §3, §4, §5, §6, §7, §8, §9

LEFCH [2] = assay: as above; type: in vivo, Leptochloa chinensis (L.) Nees
Description: as §1, §2, §3, §4, §5, §6, §7, §8, §9

LEFCH [3] = assay: Post-emergence foliar-applied weed control, greenhouse (Example I); type: in vivo, Leptochloa chinensis (L.) Nees; settings: 150 gai/ha
Source text: as §11
as §12, with “stage. […]” for “stage.”
as §13
For treatments comprised of formulated compounds, measured amounts of compounds were placed individually in 25 mL glass vials and diluted in a volume of 1.25% (v/v) Agri-Dex® crop oil concentrated to obtain 12× stock solutions. […]
For treatments comprised of formulated and technical compounds, weighed amounts of the technical materials were placed individually in 25 mL glass vials and dissolved in a volume of 97:3 v/v acetone/DMSO to obtain 12× stock solutions, and measured amounts of the formulated compounds were placed individually in 25 mL glass vials and diluted in a volume of 1.5% (v/v) crop oil concentrate or water to obtain 12× stock solutions. […]

SCPJU = assay: In-water applied weed control, transplanted paddy rice, greenhouse (Example II); type: in vivo, Schoenoplectus juncoides (Roxb.) Palla
Description: as §1
as §2, with “Water was added on a regular basis to maintain the paddy flood, and supplemental lighting was provided with overhead metal halide 1000-Watt lamps as necessary. The plants were employed for testing when they reached the first through fourth true leaf stage.” left out
as §5, §10

ECHOR = assay: as above; type: in vivo, Echinochloa oryzoides (Ard.) Fritsch
Description: as §1, §2, §3, §4, §5, §6, §7, §8, §9

FIMMI = assay: as above; type: in vivo, Fimbristylis miliacea (L.) Vahl
Description: as §1, §2, §3, §4, §5, §6, §7, §8, §9

ECHCG [4] = assay: Post-emergence foliar-applied weed control, greenhouse (Example I); type: in vivo, Echinochloa crusgalli (L.) Beauv.
Source text: as §11, §12
as §3, with “(Compound A),” for “(compound A)”, “concentrate),” for “concentrate)”, “Compound” for “compound”
as §4, with “3.5%.” for “3.5% or technical material.”
as §13, §14, §15, §16

SMILES: Cc1ccc(S(=O)(=O)Oc2c(C(=O)c3ccc(Cl)cc3Cl)c(C)nn2C)cc1 [Pyrazolynate, (2,4-dichlorophenyl)[1,3-dimethyl-5-[[(4-methylphenyl)sulfonyl]oxy]-1H-pyrazol-4-yl]methanone, reference compound]
- Visual Weed Control (%) - 21 DAA CYPRO Obs (CYPRO; 37.5 gai/ha): 0%
- Visual Weed Control (%) - 21 DAA CYPRO Obs (CYPRO; 75 gai/ha): 0%
- Visual Weed Control (%) - 21 DAA ECHCO Obs (ECHCO; 37.5 gai/ha): 0%
- Visual Weed Control (%) - 21 DAA ECHCO Obs (ECHCO; 75 gai/ha): 0%
- Visual Weed Control (%) - 21 DAA IPOHE Obs (IPOHE): 10%
- Visual Weed Control (%) - 21 DAA SCPMA Obs (SCPMA): 0%
- Visual Weed Control (%) - 21 DAA ECHCG Obs (ECHCG [1]; 37.5 gai/ha): 0%
- Visual Weed Control (%) - 21 DAA ECHCG Obs (ECHCG [1]; 75 gai/ha): 0%
- Visual Weed Control (%) - 21 DAA LEFCH Obs (LEFCH [2]; 37.5 gai/ha): 0%
- Visual Weed Control (%) - 21 DAA LEFCH Obs (LEFCH [2]; 75 gai/ha): 50%
- Visual Weed Control (%) - 21 DAA LEFCH Obs (LEFCH [3]): 5%
- Visual Weed Control (%) - 21 DAA SCPJU Obs (SCPJU; 37.5 gai/ha): 0%
- Visual Weed Control (%) - 21 DAA SCPJU Obs (SCPJU; 75 gai/ha): 0%
- Visual Weed Control (%) - 21 DAA ECHOR Obs (ECHOR; 37.5 gai/ha): 0%
- Visual Weed Control (%) - 21 DAA ECHOR Obs (ECHOR; 75 gai/ha): 8%
- Visual Weed Control (%) - 21 DAA ECHOR Obs (ECHOR; 150 gai/ha): 13%
- Visual Weed Control (%) - 21 DAA FIMMI Obs (FIMMI; 37.5 gai/ha): 0%
- Visual Weed Control (%) - 21 DAA FIMMI Obs (FIMMI; 75 gai/ha): 0%
- Visual Weed Control (%) - 22 DAA ECHCG Obs (ECHCG [4]; 37.5 gai/ha): 0%
- Visual Weed Control (%) - 22 DAA ECHCG Obs (ECHCG [4]; 75 gai/ha): 0%
- Visual Weed Control (%) - 21 DAA ECHCG Obs (ECHCG [4]; 150 gai/ha): 0%
